For one assay, the target named is T1, WRN C727 (Homo sapiens, UniProt Q14191).
T1 construct: endogenous in cells; host or cells: OCI-AML2
As to the kind of experiment: Target engagement, in vitro (lysate), OCI-AML2. In kind it is binding. The settings on record: read-out: OCI-AML2 WRN C727 TE50 in vitro (lysate). A digest of the protocol: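 OCI-AML2 intact cells or lysates dosed with compound, then a cysteine-reactive probe; after trypsin digestion, probe-labelled peptides were streptavidin-enriched and quantified by nano-LC parallel reaction monitoring MS. Engagement (%) relative to DMSO controls.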

Assay [1] addresses hWRN(519-1227)_C-H3CV-GFP-10His (Homo sapiens, UniProt Q14191). The assay can be described thus: Helicase Assay for WRN Inhibition (ATP-dependent, fluorescence based).
In another assay the test system is HCT 116 cells. As to the kind of experiment: Cell growth assay (CellTiter-Glo 2.0), HCT 116 MSI-H cell line. Particulars: Homo sapiens, HCT-116, 120 h, read-out: Cell Growth Inhibition GI50 HCT-116. A general note: Cellular ATP, detected with luciferase, serves as a proxy for viable cell number.
The next assay has as its system SW480 cells. The assay can be described thus: Cell growth assay (CellTiter-Glo 2.0), SW480 MSS cell line. The settings on record: Homo sapiens, SW480, 120 h, read-out: Cell Growth Inhibition GI50 SW480.
The mark [2] stands for this setting: WRN Helicase IC50, 30 min preincubation with ATP, 30 min reaction.

pIC50: −log10 of the molar value. Where two headings read alike, the source gives them in different places.

T1 sequence (Q14191 whole entry): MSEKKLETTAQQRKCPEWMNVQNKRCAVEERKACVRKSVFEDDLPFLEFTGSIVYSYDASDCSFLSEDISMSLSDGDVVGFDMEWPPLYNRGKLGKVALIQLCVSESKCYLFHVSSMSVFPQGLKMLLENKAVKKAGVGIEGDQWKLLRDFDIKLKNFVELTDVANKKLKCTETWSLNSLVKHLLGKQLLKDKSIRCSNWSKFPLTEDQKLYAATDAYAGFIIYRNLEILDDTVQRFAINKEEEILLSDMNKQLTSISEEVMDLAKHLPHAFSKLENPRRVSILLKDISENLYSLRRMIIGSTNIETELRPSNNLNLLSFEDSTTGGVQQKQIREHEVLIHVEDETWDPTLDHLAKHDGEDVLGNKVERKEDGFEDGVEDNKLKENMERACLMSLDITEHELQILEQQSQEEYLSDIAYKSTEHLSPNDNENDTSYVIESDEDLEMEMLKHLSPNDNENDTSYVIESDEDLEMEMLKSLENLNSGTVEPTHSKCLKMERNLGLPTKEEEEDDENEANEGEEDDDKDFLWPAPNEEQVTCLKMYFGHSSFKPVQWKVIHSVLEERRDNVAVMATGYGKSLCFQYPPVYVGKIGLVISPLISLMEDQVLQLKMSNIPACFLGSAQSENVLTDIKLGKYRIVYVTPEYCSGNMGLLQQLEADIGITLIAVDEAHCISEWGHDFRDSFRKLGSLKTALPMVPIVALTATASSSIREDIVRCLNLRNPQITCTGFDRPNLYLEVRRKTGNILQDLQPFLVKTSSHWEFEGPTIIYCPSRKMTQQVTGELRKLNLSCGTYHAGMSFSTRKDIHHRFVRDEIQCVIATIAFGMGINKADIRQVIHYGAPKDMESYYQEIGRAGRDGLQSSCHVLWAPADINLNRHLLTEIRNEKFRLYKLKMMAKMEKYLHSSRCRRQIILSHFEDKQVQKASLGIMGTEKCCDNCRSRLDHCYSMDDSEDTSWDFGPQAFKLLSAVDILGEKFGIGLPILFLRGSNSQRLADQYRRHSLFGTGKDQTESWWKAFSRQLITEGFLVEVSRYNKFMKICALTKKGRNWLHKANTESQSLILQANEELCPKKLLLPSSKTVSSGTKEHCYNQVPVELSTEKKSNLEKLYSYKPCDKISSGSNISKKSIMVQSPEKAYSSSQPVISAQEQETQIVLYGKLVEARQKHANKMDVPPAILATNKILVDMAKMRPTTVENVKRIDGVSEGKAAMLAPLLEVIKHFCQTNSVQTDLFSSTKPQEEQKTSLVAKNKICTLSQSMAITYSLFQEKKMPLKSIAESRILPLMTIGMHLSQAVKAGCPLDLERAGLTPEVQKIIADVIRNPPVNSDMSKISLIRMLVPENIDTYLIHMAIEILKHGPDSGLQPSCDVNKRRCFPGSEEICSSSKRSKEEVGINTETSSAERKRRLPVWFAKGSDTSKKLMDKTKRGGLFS
hWRN(519-1227)_C-H3CV-GFP-10His, sequence (Q14191 519-1227): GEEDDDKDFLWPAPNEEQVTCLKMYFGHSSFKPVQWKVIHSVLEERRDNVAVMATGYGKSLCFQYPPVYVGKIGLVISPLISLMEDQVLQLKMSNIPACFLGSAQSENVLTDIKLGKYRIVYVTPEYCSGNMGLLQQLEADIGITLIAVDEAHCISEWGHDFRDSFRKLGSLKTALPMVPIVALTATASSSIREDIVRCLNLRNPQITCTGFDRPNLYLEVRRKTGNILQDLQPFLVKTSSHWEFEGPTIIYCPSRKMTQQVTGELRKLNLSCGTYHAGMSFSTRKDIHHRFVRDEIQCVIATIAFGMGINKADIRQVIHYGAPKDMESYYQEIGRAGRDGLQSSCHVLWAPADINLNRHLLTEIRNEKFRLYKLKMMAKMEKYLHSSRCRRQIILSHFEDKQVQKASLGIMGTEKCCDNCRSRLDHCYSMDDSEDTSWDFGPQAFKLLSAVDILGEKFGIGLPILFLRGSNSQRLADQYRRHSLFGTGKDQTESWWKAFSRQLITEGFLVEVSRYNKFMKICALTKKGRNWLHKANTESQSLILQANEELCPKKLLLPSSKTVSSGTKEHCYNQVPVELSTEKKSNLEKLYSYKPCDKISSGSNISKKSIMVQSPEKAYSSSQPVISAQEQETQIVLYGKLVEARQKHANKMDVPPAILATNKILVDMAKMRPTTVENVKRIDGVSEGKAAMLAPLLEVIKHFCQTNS

In general, GI50 refers to the concentration that inhibits growth by half. For `C[C@@H](/C=C/S(=O)(=O)C1CC1)NC(=O)c1cnc(C2CC2)nc1Oc1ccccc1` [Example 25, (S,E)-2-cyclopropyl-N-(4-(cyclopropylsulfonyl)but-3-en-2-yl)-4-phenoxypyrimidine-5-carboxamide], the pIC50 on WRN C727 is less than 4.00; in assay [1] (setting [2]), 4.92. For the same compound, the GI50 in the assay on HCT 116 cells is 5 µM; in the assay on SW480 cells it was more than 10 µM.

Turning to `CS(=O)(=O)/C=C1/CCN(C(=O)c2cnc(C3CC3)nc2Oc2ccccc2)C1` [Example 26, (2-cyclopropyl-4-phenoxy-pyrimidin-5-yl)-[(3Z)-3-(methylsulfonylmethylene)pyrrolidin-1-yl]methanone], the pIC50 was less than 4.00 on WRN C727 and 3.99 in assay [1]. Besides, the GI50 in the assay on HCT 116 cells was 18 µM; in the assay on SW480 cells, 54 µM.

On to `CS(=O)(=O)/C=C/[C@H](CC1CC1)NC(=O)c1cnc(C2CC2)nc1Oc1ccccc1` [Example 28, (S,E)-2-cyclopropyl-N-(1-cyclopropyl-4-(methylsulfonyl)but-3-en-2-yl)-4-phenoxypyrimidine-5-carboxamide], for which the pIC50 on WRN C727 is 5.17; in assay [1] (setting [2]), 5.82. Also, the GI50 was determined as 0.606 µM with HCT 116 cells and 37.1 µM with SW480 cells.

For `CS(=O)(=O)/C=C/[C@@H](NC(=O)c1cnc(C2CC2)nc1Oc1ccccc1)C1CCC1` [Example 29, (S,E)-N-(1-cyclobutyl-3-(methylsulfonyl)allyl)-2-cyclopropyl-4-phenoxypyrimidine-5-carboxamide], the pIC50 was 5.77 on WRN C727 and 6.19 in assay [1] (setting [2]). For the same compound, the GI50 in the assay with HCT 116 cells amounted to 0.165 µM; in the assay with SW480 cells, 37.4 µM.

As for `CS(=O)(=O)/C=C/[C@@H](NC(=O)c1cnc(C2CC2)nc1Oc1ccccc1)C1CC(F)(F)C1` [Example 30, (S,E)-2-cyclopropyl-N-(1-(3,3-difluorocyclobutyl)-3-(methylsulfonyl)allyl)-4-phenoxypyrimidine-5-carboxamide], the pIC50 is 5.84 on WRN C727 and 6.35 in assay [1] (setting [2]). Besides, the GI50 turned out to be 0.12 µM with HCT 116 cells and 16 µM in the assay on SW480 cells.

In the case of `CSC[C@@H](/C=C/S(C)(=O)=O)NC(=O)c1cnc(C2CC2)nc1Oc1ccccc1` [Example 31, (R,E)-2-cyclopropyl-N-(4-(methylsulfonyl)-1-(methylthio)but-3-en-2-yl)-4-phenoxypyrimidine-5-carboxamide], the pIC50 on WRN C727 is 5.49; in assay [1] (setting [2]), 6.06. Also, the results for the GI50 with HCT 116 cells and in the assay with SW480 cells were 0.63 µM and 28 µM, respectively.

As to `CS(=O)(=O)/C=C/[C@@H](NC(=O)c1cnc(C2CC2)nc1Oc1ccccc1)C1CCOCC1` [Example 33, (S,E)-2-cyclopropyl-N-(3-(methylsulfonyl)-1-(tetrahydro-2H-pyran-4-yl)allyl)-4-phenoxypyrimidine-5-carboxamide], the pIC50 is 5.33 on WRN C727 and 5.60 in assay [1] (setting [2]). Besides, the GI50 with HCT 116 cells was 1.3 µM; with SW480 cells, more than 100 µM.

For the compound `CS(=O)(=O)/C=C/[C@@H](NC(=O)c1cnc(CC2CC2)nc1Oc1ccccc1)C1CC1` [Example 36, (S,E)-N-(1-cyclopropyl-3-(methylsulfonyl)allyl)-2-(cyclopropylmethyl)-4-phenoxypyrimidine-5-carboxamide], the values for the pIC50 (at WRN C727; in assay [1] (setting [2])) were 6.35 and 6.73, respectively. In addition, the values for the GI50 in the assay on HCT 116 cells and in the assay on SW480 cells were 0.059 µM and 17.7 µM, respectively.

Turning to `CS(=O)(=O)/C=C/[C@@H](NC(=O)c1cnc(C(F)C2CC2)nc1Oc1ccccc1)C1CC1` (stereo partly drawn) [Example 37, N—((S,E)-1-cyclopropyl-3-(methylsulfonyl)allyl)-2-(cyclopropylfluoromethyl)-4-phenoxypyrimidine-5-carboxamide], the pIC50 at WRN C727 was 6.35; in assay [1] (setting [2]), 6.62. Further, the GI50 was 0.0359 µM with HCT 116 cells and 28.6 µM in the assay on SW480 cells.

Consider `C[C@@H](/C=C/S(C)(=O)=O)NC(=O)c1cnc(C2(C)CC2)nc1Oc1ccccc1` [Example 38, (S,E)-2-(1-methylcyclopropyl)-N-(4-(methylsulfonyl)but-3-en-2-yl)-4-phenoxypyrimidine-5-carboxamide], for which the pIC50 at WRN C727 was 6.10; in assay [1] (setting [2]), 6.36. For the same compound, the GI50 was 0.157 µM in the assay with HCT 116 cells and 11.7 µM with SW480 cells.

For `CC1(c2ncc(C(=O)N3CC(=CS(C)(=O)=O)C3)c(Oc3ccccc3)n2)CC1` [Example 39, (2-(1-methylcyclopropyl)-4-phenoxypyrimidin-5-yl)(3-((methylsulfonyl)methylene)azetidin-1-yl)methanone], the pIC50 at WRN C727 was 6.19; in assay [1], 6.62. Besides, the figures for the GI50 in the assay with HCT 116 cells and with SW480 cells were 0.11 µM and 14 µM, respectively.

Consider `C[C@@H](/C=C/S(C)(=O)=O)NC(=O)c1cnc(CC2(C)CC2)nc1Oc1ccccc1` [Example 40, (S,E)-2-((1-methylcyclopropyl)methyl)-N-(4-(methylsulfonyl)but-3-en-2-yl)-4-phenoxypyrimidine-5-carboxamide], for which the pIC50 on WRN C727 is 5.46; in assay [1] (setting [2]), 5.57. Also, the values for the GI50 in the assay on HCT 116 cells and in the assay with SW480 cells were 1.2 µM and 49 µM, respectively.

As for `CC1(Cc2ncc(C(=O)N3CC(=CS(C)(=O)=O)C3)c(Oc3ccccc3)n2)CC1` [Example 41, (2-((1-methylcyclopropyl)methyl)-4-phenoxypyrimidin-5-yl)(3-((methylsulfonyl)methylene)azetidin-1-yl)methanone], the pIC50 at WRN C727 is 5.69; in assay [1], 5.85. In addition, the GI50 worked out at 0.72 µM with HCT 116 cells and 33 µM with SW480 cells.

Turning to `C[C@@H](/C=C/S(C)(=O)=O)NC(=O)c1cnc(C2(c3ccccc3)CC2)nc1Oc1ccccc1` [Example 42, (S,E)-N-(4-(methylsulfonyl)but-3-en-2-yl)-4-phenoxy-2-(1-phenylcyclopropyl)pyrimidine-5-carboxamide], the pIC50 at WRN C727 was 5.35; in assay [1] (setting [2]) it was 5.77. For the same compound, the GI50 in the assay on HCT 116 cells was found to be 0.355 µM; in the assay on SW480 cells, 5.2 µM.

Consider `CS(=O)(=O)/C=C/CNC(=O)c1cnc(C2CCC2)nc1Oc1ccccc1` [Example 43, (E)-2-cyclobutyl-N-(3-(methylsulfonyl)allyl)-4-phenoxypyrimidine-5-carboxamide], for which the pIC50 was 4.73 at WRN C727 and 5.82 in assay [1] (setting [2]). Also, the GI50 amounted to 0.67 µM with HCT 116 cells and 7.8 µM in the assay on SW480 cells.

Regarding `CS(=O)(=O)/C=C/[C@@H](NC(=O)c1cnc(C2CCC2)nc1Oc1ccccc1)C1CC1` [Example 45, (S,E)-2-cyclobutyl-N-(1-cyclopropyl-3-(methylsulfonyl)allyl)-4-phenoxypyrimidine-5-carboxamide], the pIC50 on WRN C727 was 6.96; in assay [1] (setting [2]), 7.07. The GI50 was 0.0367 µM in the assay on HCT 116 cells and 13 µM in the assay with SW480 cells.

As for `C[C@@H](/C=C/S(C)(=O)=O)NC(=O)c1cnc(CC2CCC2)nc1Oc1ccccc1` [Example 53, (S,E)-2-(cyclobutylmethyl)-N-(4-(methylsulfonyl)but-3-en-2-yl)-4-phenoxypyrimidine-5-carboxamide], the pIC50 at WRN C727 is 4.84; in assay [1] (setting [2]) it was 5.44. Moreover, the figures for the GI50 with HCT 116 cells and in the assay on SW480 cells were 0.97 µM and more than 10 µM, respectively.

`C[C@@H](/C=C/S(C)(=O)=O)NC(=O)c1cnc(CC2CCCC2)nc1Oc1ccccc1` [Example 54, (S,E)-2-(cyclopentylmethyl)-N-(4-(methylsulfonyl)but-3-en-2-yl)-4-phenoxypyrimidine-5-carboxamide]: the pIC50 at WRN C727 was 4.30; in assay [1] (setting [2]), 5.59. Besides, the GI50 in the assay with HCT 116 cells was 0.77 µM; with SW480 cells, more than 10 µM.
